Laboratory results taken from patent US20230219965A1 (KSQ Therapeutics, Inc., priority 2020, published 2023).
pIC50: −log10 of the molar value. Like-named read-outs stand apart in the source and are kept apart here.

How the values were obtained:
[1] = Liver microsomal metabolic stability, human liver microsomes (HLM); details: human, liver microsomes
[2] = Liver microsomal metabolic stability, rat liver microsomes (RLM); details: rat, liver microsomes, t1/2 (min) in RLM, 1 μM compound, 1 mg/mL microsomes, NADPH
[3] = ADME solubility determination in PBS at pH 2.0 and pH 7.4; format: physicochemical; details: phosphate buffered saline, 25 °C, thermodynamic from solid
Method in brief: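 Solubility was read by LC-MS/MS on centrifuged supernatants, calibrated to a known-concentration standard and corrected for dilution. Compound, dried down from 10 mM DMSO stock, was equilibrated 24 h at 25° C with shaking in PBS at pH 2.0 or pH 7.4.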

[4] = test system: Ub-PCNA levels in the nucleus of ES2 cells (USP1 activity); test: ES2 Ub-PCNA immunofluorescence (IF) assay; format: cell-based; details: Homo sapiens, ES-2; ES2 cells, 3 hours, Ub-PCNA immunofluorescence; read-out: USP1 IC50 (Ub-PCNA)
Method in brief: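 AC50 derived from percent Ub-PCNA-positive nuclei, positivity set by a 95% cutoff from untreated-well intensities. Readout by imaging immunofluorescence (anti-Ub-PCNA, DAPI nuclear mask) after methanol fixation. Compound exposure: 3 h at 37° C, 0.3% DMSO final, on cells plated overnight.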

[5] = target: USP1/UAF1 enzyme (Homo sapiens, UniProt O94782); test: USP1/UAF1 deubiquitination assay (ubiquitin-rhodamine 110 substrate); format: biochemical; details: read-out: USP1 IC50 (Ub-Rho)
USP1/UAF1 enzyme, sequence (O94782 whole entry): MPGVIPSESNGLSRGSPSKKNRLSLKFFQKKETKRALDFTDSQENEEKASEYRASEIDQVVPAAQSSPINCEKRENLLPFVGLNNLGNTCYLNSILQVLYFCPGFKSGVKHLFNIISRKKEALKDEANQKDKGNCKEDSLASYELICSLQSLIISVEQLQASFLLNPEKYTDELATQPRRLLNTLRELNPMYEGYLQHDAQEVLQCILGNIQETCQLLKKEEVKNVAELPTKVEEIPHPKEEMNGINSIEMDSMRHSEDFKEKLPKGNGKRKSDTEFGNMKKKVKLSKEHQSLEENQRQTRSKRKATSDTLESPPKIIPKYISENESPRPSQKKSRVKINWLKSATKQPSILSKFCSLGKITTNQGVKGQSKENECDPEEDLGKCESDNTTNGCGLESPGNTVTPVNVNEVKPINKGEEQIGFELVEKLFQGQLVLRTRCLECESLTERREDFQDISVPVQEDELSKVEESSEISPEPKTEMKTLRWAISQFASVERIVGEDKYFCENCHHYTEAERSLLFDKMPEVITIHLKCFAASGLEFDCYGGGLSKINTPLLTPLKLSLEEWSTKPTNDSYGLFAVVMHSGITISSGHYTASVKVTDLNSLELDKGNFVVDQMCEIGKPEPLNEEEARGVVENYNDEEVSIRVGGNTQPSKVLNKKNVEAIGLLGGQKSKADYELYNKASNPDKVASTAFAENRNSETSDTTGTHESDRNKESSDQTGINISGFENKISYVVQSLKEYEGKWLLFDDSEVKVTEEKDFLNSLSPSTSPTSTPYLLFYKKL
USP1/UAF1 enzyme, sequence (Q8TAF3 whole entry partner): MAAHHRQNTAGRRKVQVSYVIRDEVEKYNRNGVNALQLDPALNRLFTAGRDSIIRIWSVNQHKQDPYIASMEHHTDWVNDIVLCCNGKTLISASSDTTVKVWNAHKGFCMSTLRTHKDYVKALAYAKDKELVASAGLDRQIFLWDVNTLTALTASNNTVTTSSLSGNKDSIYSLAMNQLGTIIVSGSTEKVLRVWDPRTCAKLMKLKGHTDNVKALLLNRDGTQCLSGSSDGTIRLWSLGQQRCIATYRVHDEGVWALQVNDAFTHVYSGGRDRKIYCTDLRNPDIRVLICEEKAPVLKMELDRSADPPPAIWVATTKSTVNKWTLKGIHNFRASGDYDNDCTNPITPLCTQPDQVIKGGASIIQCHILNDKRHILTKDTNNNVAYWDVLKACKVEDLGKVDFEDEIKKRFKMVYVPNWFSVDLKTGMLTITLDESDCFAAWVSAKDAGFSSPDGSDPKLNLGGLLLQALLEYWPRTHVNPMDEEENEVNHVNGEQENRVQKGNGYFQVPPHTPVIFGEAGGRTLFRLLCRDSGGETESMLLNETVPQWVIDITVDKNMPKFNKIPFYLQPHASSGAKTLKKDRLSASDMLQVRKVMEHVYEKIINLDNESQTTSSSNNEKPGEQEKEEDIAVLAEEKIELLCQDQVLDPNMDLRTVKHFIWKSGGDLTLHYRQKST
Method in brief: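 Cleavage of 150 nM ubiquitin-rhodamine 110 by 0.05 nM USP1/UAF1 was followed as fluorescence (Ex480/Em540, kinetic, 30 min) in Tris-HCl pH 7.8 buffer with EDTA, BSA, DTT and Tween-20. Compounds, top 10 μM, were preincubated with enzyme 10 min; % inhibition against no-enzyme and DMSO wells gave four-parameter IC50s.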

[6] = pH 2, aqueous buffer, PBS pH 2.0, 25° C., read-out: Solubility at pH 2.0
[7] = pH 7.4, aqueous buffer, PBS pH 7.4, 25° C., read-out: Solubility at pH 7.4

SMILES	half-life at 1 μM [1] [min]	half-life at 1 μM [2] [min]	solubility at 24 h [3, 6] [µM]	solubility at 24 h [3, 7] [µM]	pIC50 [4]	pIC50 [5]
COc1ncnc(C2CC2)c1-c1cc2n(n1)CCC(=O)N2[C@@H](C)c1ccc(-c2nc(C(F)(F)F)cn2C(C)C)cc1 [Example 122]	> 25	> 25	≥ 10	< 10	< 6.30	6.30 to 7.00
CCn1cc(C(F)(F)F)nc1-c1ccc([C@H](C)N2C(=O)CCn3nc(-c4c(OC)ncnc4C4CC4)cc32)cc1 [Example 124]	< 25	< 25	≥ 10	≥ 10	< 6.30	6.30 to 7.00
CCn1cc(C(F)(F)F)nc1-c1ccc(CN2C(=O)CCn3nc(-c4c(Cl)cnn4[C@H](C)COC)cc32)cc1F [Example 131]	< 25	< 25	< 10	< 10	> 7.00	> 7.00
CCn1cc(C(F)(F)F)nc1-c1ccc([C@@H](C)N2C(=O)CCn3nc(-c4c(Cl)cnn4C(C)C)cc32)cn1 [Example 139]	> 25	> 25	< 10	< 10	6.30 to 7.00	> 7.00
CCn1cc(C(F)(F)F)nc1-c1c(F)cc(CN2C(=O)CCn3nc(-c4c(OC)ncnc4C4CC4)cc32)cc1OC [Example 140]	> 25	> 25	≥ 10	< 10	> 7.00	> 7.00
CCn1cc(C(F)(F)F)nc1-c1c(F)cc(CN2C(=O)CCn3nc(-c4c(Cl)cnn4C(C)C)cc32)cc1OC [Example 141]	> 25	> 25	< 10	< 10	> 7.00	> 7.00
Cc1cnn(C(C)C)c1-c1nn2c(c1Cl)N(Cc1ccc(-c3nc(C(F)(F)F)cn3C(C)C)c(F)c1)CCC2 [Example 148]	< 25	< 25	< 10	< 10	> 7.00	> 7.00
CCn1cc(C(F)(F)F)nc1-c1ccc(CN2C(=O)CCn3nc(-c4c(Cl)cnn4C(C)COC)cc32)cc1F (stereo not drawn) [Example 160]	< 25	< 25	< 10	< 10	6.30 to 7.00	> 7.00
COc1ncnc(C2CC2)c1-c1nc2n(n1)CCC(=O)N2Cc1ccc(-c2nc(C(F)(F)F)cn2C(C)C)c(F)c1 [Example 164, 2-(4-cyclopropyl-6-methoxypyrimidin-5-yl)-4-(3-fluoro-4-(1-isopropyl-4-(trifluoromethyl)-1H-imidazol-2-yl)benzyl)-6,7-dihydro-[1,2,4]triazolo[1,5-α]pyrimidin-5(4H)-one]	> 25	> 25	< 10	< 10	> 7.00	> 7.00
COc1cc(CN2C(=O)CCn3nc(-c4c(Cl)cnn4C(C)C)nc32)ccc1-c1nc(C(F)(F)F)cn1C(C)C [Example 165]	> 25	> 25	< 10	< 10	6.30 to 7.00	> 7.00
COc1cc(CN2C(=O)CCn3nc(-c4c(OC)ncnc4C4CC4)nc32)ccc1-c1nc(C(F)(F)F)cn1C(C)C [Example 166]	> 25	> 25	≥ 10	≥ 10	6.30 to 7.00	6.30 to 7.00

Other lines, results leading:

half-life at 1 μM [1] [min]	half-life at 1 μM [2] [min]	solubility at 24 h [3, 6] [µM]	solubility at 24 h [3, 7] [µM]	pIC50 [4]	pIC50 [5]	SMILES
> 25	> 25	< 10	< 10	> 7.00	> 7.00	CCn1cc(C(F)(F)F)nc1-c1ccc(C(C)N2C(=O)CCn3nc(-c4c(OC)ncnc4C4CC4)cc32)cc1F (stereo not drawn) [Example 120]
> 25	> 25	≥ 10	< 10	> 7.00	> 7.00	COc1ncnc(C2CC2)c1-c1cc2n(n1)CCC(=O)N2[C@H](C)c1ccc(-c2nc(C(F)(F)F)cn2C(C)C)cc1 [Example 123]
> 25	> 25	≥ 10	< 10	> 7.00	> 7.00	CCn1cc(C(F)(F)F)nc1-c1ccc([C@@H](C)N2C(=O)CCn3nc(-c4c(OC)ncnc4C4CC4)cc32)cc1 [Example 125]
> 25	< 25	≥ 10	< 10	> 7.00	> 7.00	COc1cc([C@@H](C)N2C(=O)CCn3nc(-c4c(OC)ncnc4C4CC4)cc32)ccc1-c1nc(C(F)(F)F)cn1C(C)C [Example 129]
< 25	< 25	< 10	< 10	> 7.00	> 7.00	CCn1cc(C(F)(F)F)nc1-c1ccc(CN2C(=O)CCn3nc(-c4c(Cl)cnn4[C@@H](C)COC)cc32)cc1F [Example 132]
> 25	> 25	< 10	< 10	6.30 to 7.00	> 7.00	CC(C)n1ncc(Cl)c1-c1cc2n(n1)CCC(=O)N2Cc1ccc(-c2nn(C)cc2C#N)cc1 [Example 133]
< 25	< 25	< 10	< 10	> 7.00	> 7.00	COc1cc(C)nn1-c1ccc(CN2C(=O)CCn3nc(-c4c(Cl)cnn4C(C)C)cc32)cc1 [Example 135]
> 25	< 25	≥ 10	< 10	6.30 to 7.00	6.30 to 7.00	CCn1cc(C(F)(F)F)nc1-c1ccc([C@H](C)N2C(=O)CCn3nc(-c4c(OC)ncnc4C4CC4)cc32)cc1F [Example 142]
> 25	> 25	≥ 10	≥ 10	> 7.00	> 7.00	CCn1cc(C(F)(F)F)nc1-c1ccc([C@@H](C)N2C(=O)CCn3nc(-c4c(OC)ncnc4C4CC4)cc32)cc1F [Example 143]
> 25	> 25	≥ 10	< 10	> 7.00	> 7.00	COc1cc(CN2C(=O)CCn3nc(-c4c(OC)ncnc4C4CC4)cc32)cc(F)c1-c1nc(C(F)(F)F)cn1C(C)C [Example 144]
< 25	< 25	< 10	< 10	> 7.00	> 7.00	CCn1cc(C(F)(F)F)nc1-c1c(Cl)cc(CN2C(=O)CCn3nc(-c4c(OC)ncnc4C4CC4)cc32)cc1OC [Example 145]
< 25	< 25	< 10	< 10	> 7.00	> 7.00	Cc1cnn(C(C)C)c1-c1nn2c(c1Cl)N(Cc1ccc(-c3nc(C(F)(F)F)cn3C)cc1)CCC2 [Example 147, 3-chloro-2-(1-isopropyl-4-methyl-1H-pyrazol-5-yl)-4-(4-(1-methyl-4-(trifluoromethyl)-1H-imidazol-2-yl)benzyl)-4,5,6,7-tetrahydropyrazolo[1,5-α]pyrimidine]
< 25	< 25	< 10	< 10	> 7.00	> 7.00	CCn1cc(C(F)(F)F)nc1-c1ccc(CN2C(=O)CCn3nc(-c4c(Cl)cnn4C(C)COC)cc32)cc1 (stereo not drawn) [Example 151]
< 25	< 25	< 10	< 10	6.30 to 7.00	> 7.00	CCn1cc(C(F)(F)F)nc1-c1ccc(CN2C(=O)CCn3nc(-c4c(Cl)cnn4C4(COC)CC4)cc32)cc1F [Example 153]
> 25	< 25	< 10	< 10	6.30 to 7.00	> 7.00	CCn1cc(C(F)(F)F)nc1-c1ccc(CN2C(=O)CCn3nc(-c4c(Cl)cnn4C4(COC)CC4)cc32)cc1 [Example 159]
> 25	> 25	< 10	< 10	> 7.00	> 7.00	COc1ncnc(C2CC2)c1-c1nc2n(n1)CCC(=O)N2Cc1ccc(-c2nc(C(F)(F)F)cn2C(C)C)cc1 [Example 168]
